Key:
[1] = biological target: Neuronal acetylcholine receptor subunit alpha-4 (Homo sapiens, UniProt P43681)
D(1A) dopamine receptor = D(1A) dopamine receptor (Homo sapiens, UniProt P21728); format: functional, cell-based
[2] = biological target: Gamma-aminobutyric acid receptor subunit alpha-1 (Rattus norvegicus, UniProt P62813)
[3] = biological target: Glutamate receptor ionotropic, NMDA 1 (Rattus norvegicus, UniProt P35439)
[4] = biological target: T1, 5-hydroxytryptamine receptor 1A (Homo sapiens, UniProt P08908); format: functional, cell-based
T1 sequence (P08908 whole entry): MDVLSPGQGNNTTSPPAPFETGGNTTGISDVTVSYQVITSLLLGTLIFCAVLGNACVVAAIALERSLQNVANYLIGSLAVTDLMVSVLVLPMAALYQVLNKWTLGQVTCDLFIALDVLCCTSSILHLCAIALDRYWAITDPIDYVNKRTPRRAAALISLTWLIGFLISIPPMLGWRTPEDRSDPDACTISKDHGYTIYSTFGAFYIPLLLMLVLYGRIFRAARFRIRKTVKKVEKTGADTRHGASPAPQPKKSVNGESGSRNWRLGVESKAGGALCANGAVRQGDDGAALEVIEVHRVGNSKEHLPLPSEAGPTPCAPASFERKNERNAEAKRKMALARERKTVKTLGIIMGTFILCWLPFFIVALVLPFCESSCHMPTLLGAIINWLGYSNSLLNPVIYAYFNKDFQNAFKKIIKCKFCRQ

[5] = biological target: T2, 5-hydroxytryptamine receptor 2C (Homo sapiens, UniProt P28335)
T2 sequence (P28335 whole entry): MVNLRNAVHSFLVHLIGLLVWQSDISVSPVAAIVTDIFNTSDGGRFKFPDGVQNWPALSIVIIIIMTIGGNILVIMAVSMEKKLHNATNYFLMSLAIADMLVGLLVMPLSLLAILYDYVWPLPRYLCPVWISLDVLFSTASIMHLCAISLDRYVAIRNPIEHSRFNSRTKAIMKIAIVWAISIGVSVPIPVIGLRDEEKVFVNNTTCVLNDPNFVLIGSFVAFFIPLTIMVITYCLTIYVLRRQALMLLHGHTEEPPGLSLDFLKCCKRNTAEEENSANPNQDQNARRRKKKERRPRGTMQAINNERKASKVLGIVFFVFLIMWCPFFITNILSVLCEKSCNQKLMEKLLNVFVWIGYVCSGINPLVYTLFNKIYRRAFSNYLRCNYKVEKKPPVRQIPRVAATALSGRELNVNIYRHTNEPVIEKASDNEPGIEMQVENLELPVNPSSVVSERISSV

[6] = biological target: 3',5'-cyclic-AMP phosphodiesterase 4D (Homo sapiens, UniProt Q08499); format: functional
Histamine H3 receptor = Histamine H3 receptor (Homo sapiens, UniProt Q9Y5N1)
Glucocorticoid receptor = biological target: T3, Glucocorticoid receptor (Homo sapiens, UniProt P04150)
T3 sequence (P04150 whole entry): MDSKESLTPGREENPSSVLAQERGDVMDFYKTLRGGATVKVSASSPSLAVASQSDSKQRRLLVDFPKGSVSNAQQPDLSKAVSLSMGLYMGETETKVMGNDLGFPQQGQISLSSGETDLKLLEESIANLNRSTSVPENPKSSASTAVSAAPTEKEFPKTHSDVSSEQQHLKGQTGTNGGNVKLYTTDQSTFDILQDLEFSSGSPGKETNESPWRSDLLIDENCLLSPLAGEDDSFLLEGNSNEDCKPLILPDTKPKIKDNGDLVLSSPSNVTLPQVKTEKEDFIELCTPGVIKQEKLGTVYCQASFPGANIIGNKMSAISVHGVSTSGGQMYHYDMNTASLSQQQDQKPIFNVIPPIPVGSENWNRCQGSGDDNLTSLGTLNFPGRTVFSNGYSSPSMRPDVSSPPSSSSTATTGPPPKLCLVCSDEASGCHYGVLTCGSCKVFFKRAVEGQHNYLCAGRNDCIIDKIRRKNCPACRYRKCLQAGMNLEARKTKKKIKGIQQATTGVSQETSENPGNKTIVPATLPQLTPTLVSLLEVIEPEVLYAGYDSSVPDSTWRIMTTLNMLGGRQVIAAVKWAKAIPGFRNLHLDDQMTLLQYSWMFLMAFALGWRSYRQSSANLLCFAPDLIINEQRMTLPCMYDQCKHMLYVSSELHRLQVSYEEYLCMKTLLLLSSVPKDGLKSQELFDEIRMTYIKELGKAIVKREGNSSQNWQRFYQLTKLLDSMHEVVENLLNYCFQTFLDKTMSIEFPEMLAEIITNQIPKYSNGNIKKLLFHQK

Progesterone receptor = biological target: T4, Progesterone receptor (Homo sapiens, UniProt P06401); format: functional
T4 sequence (P06401 whole entry): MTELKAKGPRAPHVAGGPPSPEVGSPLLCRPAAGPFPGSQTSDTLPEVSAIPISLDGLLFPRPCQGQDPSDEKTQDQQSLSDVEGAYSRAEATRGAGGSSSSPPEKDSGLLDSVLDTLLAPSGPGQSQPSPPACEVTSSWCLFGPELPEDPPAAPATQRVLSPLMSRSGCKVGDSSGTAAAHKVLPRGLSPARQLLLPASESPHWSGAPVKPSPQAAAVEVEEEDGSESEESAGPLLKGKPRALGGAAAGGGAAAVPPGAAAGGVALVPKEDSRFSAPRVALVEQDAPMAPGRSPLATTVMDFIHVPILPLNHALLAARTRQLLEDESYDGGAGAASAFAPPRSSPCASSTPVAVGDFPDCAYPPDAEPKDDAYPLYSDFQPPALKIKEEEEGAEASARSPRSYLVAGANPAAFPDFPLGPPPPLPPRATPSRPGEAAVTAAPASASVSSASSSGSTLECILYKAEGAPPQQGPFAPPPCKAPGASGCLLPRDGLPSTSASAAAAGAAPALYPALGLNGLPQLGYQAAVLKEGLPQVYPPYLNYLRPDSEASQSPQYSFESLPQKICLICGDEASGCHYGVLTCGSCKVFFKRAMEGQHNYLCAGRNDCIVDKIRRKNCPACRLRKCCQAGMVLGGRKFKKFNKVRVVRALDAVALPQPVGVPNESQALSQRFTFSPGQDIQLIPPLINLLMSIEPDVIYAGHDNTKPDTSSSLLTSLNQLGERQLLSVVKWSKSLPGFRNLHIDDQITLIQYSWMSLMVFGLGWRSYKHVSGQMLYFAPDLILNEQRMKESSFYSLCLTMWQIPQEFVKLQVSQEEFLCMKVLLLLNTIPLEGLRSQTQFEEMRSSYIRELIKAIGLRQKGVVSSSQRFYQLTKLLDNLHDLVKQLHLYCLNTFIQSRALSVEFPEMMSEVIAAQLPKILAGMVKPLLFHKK
Note: assay procedure not described here.

3',5'-cyclic-AMP phosphodiesterase 4D, sequence (Q08499 whole entry): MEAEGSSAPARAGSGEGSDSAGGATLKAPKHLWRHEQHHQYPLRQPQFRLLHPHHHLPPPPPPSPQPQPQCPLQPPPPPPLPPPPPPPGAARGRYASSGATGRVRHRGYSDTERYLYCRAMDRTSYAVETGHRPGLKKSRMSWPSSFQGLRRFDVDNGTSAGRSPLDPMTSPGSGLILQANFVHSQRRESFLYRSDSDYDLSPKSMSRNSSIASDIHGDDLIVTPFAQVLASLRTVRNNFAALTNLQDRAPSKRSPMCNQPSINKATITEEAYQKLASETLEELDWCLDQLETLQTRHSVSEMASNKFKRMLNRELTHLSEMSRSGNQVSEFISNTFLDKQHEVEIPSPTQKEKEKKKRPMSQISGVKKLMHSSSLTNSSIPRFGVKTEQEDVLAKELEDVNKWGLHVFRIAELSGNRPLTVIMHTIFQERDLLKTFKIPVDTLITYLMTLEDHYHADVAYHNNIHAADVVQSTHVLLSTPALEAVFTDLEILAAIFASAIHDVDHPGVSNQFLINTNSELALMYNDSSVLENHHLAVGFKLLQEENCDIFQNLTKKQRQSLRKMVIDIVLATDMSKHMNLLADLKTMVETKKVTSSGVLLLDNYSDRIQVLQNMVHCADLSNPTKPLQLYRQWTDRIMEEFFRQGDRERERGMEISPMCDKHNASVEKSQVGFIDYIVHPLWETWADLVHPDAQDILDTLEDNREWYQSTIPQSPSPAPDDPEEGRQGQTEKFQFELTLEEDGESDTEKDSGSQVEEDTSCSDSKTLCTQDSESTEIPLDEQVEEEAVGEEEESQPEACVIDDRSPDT
D(1A) dopamine receptor, sequence (P21728 whole entry): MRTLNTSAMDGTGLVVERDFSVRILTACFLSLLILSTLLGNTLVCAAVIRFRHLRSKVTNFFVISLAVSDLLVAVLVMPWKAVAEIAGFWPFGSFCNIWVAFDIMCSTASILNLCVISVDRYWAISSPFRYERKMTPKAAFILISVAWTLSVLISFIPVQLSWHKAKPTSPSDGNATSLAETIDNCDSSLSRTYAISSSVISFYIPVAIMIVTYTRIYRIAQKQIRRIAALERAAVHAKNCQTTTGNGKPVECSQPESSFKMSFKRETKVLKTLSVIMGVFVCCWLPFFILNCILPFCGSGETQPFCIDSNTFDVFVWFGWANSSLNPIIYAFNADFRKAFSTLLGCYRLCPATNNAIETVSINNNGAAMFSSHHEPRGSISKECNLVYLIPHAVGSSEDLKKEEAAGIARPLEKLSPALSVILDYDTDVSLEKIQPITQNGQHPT
Neuronal acetylcholine receptor subunit alpha-4, sequence (P43681 whole entry): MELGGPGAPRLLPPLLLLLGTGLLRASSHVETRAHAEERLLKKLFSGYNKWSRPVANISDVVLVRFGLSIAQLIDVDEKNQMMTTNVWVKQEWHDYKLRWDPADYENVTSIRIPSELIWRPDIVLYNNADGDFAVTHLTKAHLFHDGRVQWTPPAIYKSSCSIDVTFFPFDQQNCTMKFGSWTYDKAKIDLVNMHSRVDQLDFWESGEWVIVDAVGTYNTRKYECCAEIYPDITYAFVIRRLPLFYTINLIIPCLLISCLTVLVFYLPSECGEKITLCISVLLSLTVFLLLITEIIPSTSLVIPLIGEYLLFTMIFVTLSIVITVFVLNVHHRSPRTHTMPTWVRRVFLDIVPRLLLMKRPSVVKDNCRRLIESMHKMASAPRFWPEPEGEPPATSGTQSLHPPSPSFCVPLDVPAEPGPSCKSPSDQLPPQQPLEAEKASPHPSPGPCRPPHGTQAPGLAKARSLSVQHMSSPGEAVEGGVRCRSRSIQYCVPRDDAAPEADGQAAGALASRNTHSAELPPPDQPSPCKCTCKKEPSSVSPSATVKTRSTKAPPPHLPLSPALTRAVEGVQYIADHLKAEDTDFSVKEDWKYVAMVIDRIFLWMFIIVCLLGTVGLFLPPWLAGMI
Gamma-aminobutyric acid receptor subunit alpha-1, sequence (P62813 whole entry): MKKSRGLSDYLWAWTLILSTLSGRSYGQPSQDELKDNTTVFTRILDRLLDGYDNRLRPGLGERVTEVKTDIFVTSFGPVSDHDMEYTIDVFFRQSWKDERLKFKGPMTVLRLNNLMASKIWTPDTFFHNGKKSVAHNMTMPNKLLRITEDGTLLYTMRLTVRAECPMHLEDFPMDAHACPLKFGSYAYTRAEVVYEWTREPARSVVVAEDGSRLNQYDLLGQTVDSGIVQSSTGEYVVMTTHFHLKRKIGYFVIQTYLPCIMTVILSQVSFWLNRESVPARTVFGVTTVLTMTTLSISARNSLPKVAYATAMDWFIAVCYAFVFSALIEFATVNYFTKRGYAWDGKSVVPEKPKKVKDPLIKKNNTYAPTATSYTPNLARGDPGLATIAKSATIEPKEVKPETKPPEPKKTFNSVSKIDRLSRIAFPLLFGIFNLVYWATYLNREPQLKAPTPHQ
Histamine H3 receptor, sequence (Q9Y5N1 whole entry): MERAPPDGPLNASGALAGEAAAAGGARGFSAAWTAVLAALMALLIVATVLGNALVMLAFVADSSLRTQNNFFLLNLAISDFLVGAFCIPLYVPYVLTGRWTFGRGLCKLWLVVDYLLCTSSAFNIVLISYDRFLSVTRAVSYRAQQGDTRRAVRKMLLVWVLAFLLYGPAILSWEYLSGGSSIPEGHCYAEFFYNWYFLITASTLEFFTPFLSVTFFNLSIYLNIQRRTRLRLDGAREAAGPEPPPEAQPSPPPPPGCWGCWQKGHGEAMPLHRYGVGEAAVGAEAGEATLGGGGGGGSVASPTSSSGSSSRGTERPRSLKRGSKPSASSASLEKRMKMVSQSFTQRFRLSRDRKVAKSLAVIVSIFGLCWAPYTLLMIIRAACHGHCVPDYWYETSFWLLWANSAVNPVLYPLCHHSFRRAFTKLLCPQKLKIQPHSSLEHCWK

| SMILES | AC50 [1] [µM] | AC50 (D(1A) dopamine receptor) [µM] | AC50 [2] [µM] | AC50 [3] [µM] | AC50 [4] [µM] | AC50 [5] [µM] | AC50 [6] [µM] | AC50 (Histamine H3 receptor) [µM] | AC50 (Glucocorticoid receptor) [µM] | AC50 (Progesterone receptor) [µM] |
| --- | --- | --- | --- | --- | --- | --- | --- | --- | --- | --- |
| Oc1cc(O)c(Cl)cn1 | > 30 | > 30 | > 30 | > 30 | > 30 | > 30 | > 30 | > 30 |  |  |
| CC(=O)c1ccc(S(=O)(=O)NC(=O)NC2CCCCC2)cc1 [ACETOHEXAMIDE] | > 10 | > 10 | > 10 | > 10 | > 30 | > 30 | > 30 |  | > 10 | > 10 |
| CCC1(CCC(C)C)C(=O)NC(=O)NC1=O [AMOBARBITAL] | > 10 | > 10 | > 10 | > 10 | > 10 | > 30 | > 30 |  |  | > 10 |
| COc1ccc(C2C(=O)c3ccccc3C2=O)cc1 [ANISINDIONE] | > 10 | > 30 | > 10 | > 10 | > 10 | > 30 | > 30 |  | > 30 | > 30 |
| Cc1cc(=O)n(-c2ccccc2)n1C [ANTIPYRINE] | > 10 | > 10 | > 10 | > 10 | > 30 | > 30 | > 30 | > 10 |  |  |
| O=C(O)c1ccc(NC(=O)[C@H](Cc2ccc(O)cc2)NC(=O)c2ccccc2)cc1 [BENTIROMIDE] | > 10 | > 10 | > 10 | > 10 | > 10 | > 30 | > 30 |  |  | > 10 |
| NS(=O)(=O)c1cc2c(cc1Cl)N=C(CSCc1ccccc1)NS2(=O)=O [BENZTHIAZIDE] | > 10 | > 10 | > 10 | > 10 | > 10 | > 30 | > 30 |  | > 30 | > 30 |
| C[C@@H]1C[C@H]2[C@@H]3CCC4=CC(=O)C=C[C@]4(C)[C@@]3(F)[C@@H](O)C[C@]2(C)[C@@]1(O)C(=O)CO [DEXAMETHASONE] | > 30 | > 30 | > 10 | > 10 | > 10 | > 30 | > 30 | > 30 |  | 0.2 |
| CC(C)[C@@H](C)/C=C/[C@@H](C)[C@H]1CC[C@H]2/C(=C/C=C3\C[C@@H](O)CC[C@@H]3C)CCC[C@]12C [DIHYDROTACHYSTEROL] | > 10 | > 10 | > 10 | > 10 | > 10 | > 30 | > 30 |  |  | > 30 |
| Oc1ccc(CCNCCCCCCNCCc2ccccc2)cc1O [DOPEXAMINE] | > 30 | 23 | > 30 | > 30 | > 30 | > 30 | 29 | 11 |  | > 30 |
| CC(C)NC[C@H](O)COc1ccc(CC(N)=O)cc1 [ESATENOLOL] |  |  |  | > 10 | > 10 | > 10 | > 10 |  |  |  |
| CCOC(=O)c1ncn2c1CN(C)C(=O)c1cc(F)ccc1-2 [FLUMAZENIL] | > 30 | > 30 |  | > 30 | > 30 | > 30 | > 30 | > 30 |  | > 30 |
| CC(=O)[C@H]1CC[C@H]2[C@@H]3C[C@H](C)C4=CC(=O)CC[C@]4(C)[C@H]3[C@@H](O)C[C@]12C [MEDRYSONE] | > 10 | > 10 | > 10 | > 10 | > 10 | > 30 | > 30 |  | 0.005 | 0.0027 |
| CCCC(C)(COC(N)=O)COC(N)=O [MEPROBAMATE] | > 10 | > 10 | > 10 | > 10 | > 10 | > 30 | > 30 |  | > 10 | > 10 |
| CO[C@H]1C[C@H](O[C@H]2CC[C@@]3(C)[C@H](CC[C@@H]4[C@@H]3CC[C@]3(C)[C@@H](C5=CC(=O)OC5)[C@@H](OC(C)=O)C[C@]43O)C2)O[C@@H](C)[C@@H]1O [OLEANDRIN] |  | > 30 | > 30 | > 30 | > 30 | > 30 | > 30 |  |  |  |
| CCC(=O)O[C@](Cc1ccccc1)(c1ccccc1)[C@H](C)CN(C)C [PROPOXYPHENE] | > 10 | > 10 | > 10 | > 10 | > 10 | > 30 | > 30 | > 10 |  |  |
| O=c1c(O)c(-c2ccc(O)c(O)c2)oc2cc(O)cc(O)c12 [QUERCETIN] | > 10 | > 10 |  |  | > 30 | > 30 | > 10 | > 10 |  |  |
| CC1=C(/C=C/C(C)=C/C=C/C(C)=C/CO)C(C)(C)CCC1 [RETINOL] | > 10 | > 10 | > 10 | > 10 | > 10 | > 30 | > 30 |  |  | > 30 |
| CCCN1CCCC[C@H]1C(=O)Nc1c(C)cccc1C [ROPIVACAINE] | > 30 | > 30 | > 30 | > 30 | > 30 | > 30 | > 30 | > 30 |  | > 30 |
| CCCCCCCC(=O)CC[C@@H]1[C@@H](C/C=C\CCCC(=O)OC(C)C)[C@@H](O)C[C@H]1O [UNOPROSTONE ISOPROPYL] |  |  |  |  |  |  | 9.6 |  |  | > 30 |

From ChEMBL document CHEMBL5291721, “A preclinical secondary pharmacology resource illuminates target-adverse drug reaction associations of marketed drugs” (Nat Commun, 2023)
